BindingDB's records for patent US12384772 (Vivoryon Therapeutics, 2025)

Tests used:
[1] = molecular target: T1, Glutaminyl-peptide cyclotransferase (Homo sapiens, UniProt Q16769); test: Inhibition Assay (pH 6)
Method: (§1) 10 mM compound stock solutions were prepared in DMSO. For IC50 determination compound stocks were serially diluted (1:3) in DMSO.All measurements were performed with an EnSpire Perkin Elmer multimode reader using glutaminyl-7-amino-4-methylcoumarin (H-Gin-AMC) as substrate and recombinant pyroglutamyl aminopeptidase (pGAP) as auxiliary enzyme. Reactions were carried out at ambient temperature in black 96-well half area microplates. Each sample consisted of 1 μl test compound solution or solvent (DMSO) and 49 μl QC appropriately diluted in assay buffer (50 mM Tris/HCl, pH 8.0 or 50 mM MES buffer, pH=6.0). After a 10 min preincubation at ambient temperature the enzyme reaction was started by adding 50 μl of Gln-AMC-substrate/pGAP mixture in assay buffer. Final substrate concentrations were 50 and 200 μM for measurement at pH 8.0 or 6.0, respectively. Release of flourogenic AMC were recorded at excitation/emission wavelengths of 380/460 nm. Initial velocity of the enzyme reaction was calculated by linear regression of the first 10 data points using the Enspire Manager software. Final evaluation and calculation of IC50s were performed using GraphPad Prism software.

[2] = molecular target: T1, Glutaminyl-peptide cyclotransferase; test: Inhibition Assay (pH 8.0)
Method: as §1

T1 sequence (Q16769 whole entry): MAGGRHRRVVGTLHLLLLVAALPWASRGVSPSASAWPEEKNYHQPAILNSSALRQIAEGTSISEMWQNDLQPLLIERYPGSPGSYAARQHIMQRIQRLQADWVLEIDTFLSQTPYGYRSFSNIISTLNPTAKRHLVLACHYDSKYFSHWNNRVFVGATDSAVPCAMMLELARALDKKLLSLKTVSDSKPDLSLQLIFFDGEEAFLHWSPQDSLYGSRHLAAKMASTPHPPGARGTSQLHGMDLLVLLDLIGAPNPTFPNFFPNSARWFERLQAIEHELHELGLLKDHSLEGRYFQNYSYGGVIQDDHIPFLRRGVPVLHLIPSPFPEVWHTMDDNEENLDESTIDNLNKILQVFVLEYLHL

A Ki [1] of 8.05 µM and a Ki [2] of 5.18 µM were found for `CS(=O)(=NCc1ccc2[nH]cnc2c1)c1ccc(F)cc1` (configuration not stated) [US12384772, Compound 1285] in this work.
